What all share (format): in vivo
The subject of test [1] is Lolium perenne (LOLPE). Kind of test: Example B pre-emergence herbicidal test, LOLPE. To be noted: rate 250 g/ha, evaluated after 13 days, 100=total damage to plant, 0=no damage to plant; for pest or weed control at 250 g/ha: Lolium perenne, 312 h. The procedure: (§1) Seeds of a variety of test species were sown in standard soil in pots. After cultivation for one day (pre-emergence) or after 8 days cultivation (post-emergence) under controlled conditions in a glasshouse (at 24/16° C., day/night; 14 hours light; 65% humidity), the plants were sprayed with an aqueous spray solution derived from the formulation of the technical active ingredient in acetone/water (50:50) solution containing 0.5% Tween 20 (polyoxyethelyene sorbitan monolaurate, CAS RN 9005-64-5). The test plants were then grown in a glasshouse under controlled conditions in a glasshouse (at 24/16° C., day/night; 14 hours light; 65% humidity) and watered twice daily. After 13 days for pre and post-emergence, the test was evaluated (100=total damage to plant; 0=no damage to plant). Lolium perenne (LOLPE), Alopecurus myosuroides (ALOMY), Echinochloa crus-galli (ECHCG), Avena fatua (AVEFA) Pre-Emergence Activity

For test [2], the system named is Alopecurus myosuroides (ALOMY). In words: Example B pre-emergence herbicidal test, ALOMY. The settings on record: rate 250 g/ha, evaluated after 13 days, 100=total damage to plant, 0=no damage to plant; for pest or weed control at 250 g/ha: Alopecurus myosuroides, 312 h. The method, then:
as §1

The subject of test [3] is Echinochloa crus-galli (ECHCG). Kind of test: Example B pre-emergence herbicidal test, ECHCG. The settings on record: rate 250 g/ha, evaluated after 13 days, 100=total damage to plant, 0=no damage to plant; for pest or weed control at 250 g/ha: Echinochloa crus-galli, 312 h. The method, then:
as §1

Test [4] concerns Avena fatua (AVEFA). Kind of test: Example B pre-emergence herbicidal test, AVEFA. To be noted: rate 250 g/ha, evaluated after 13 days, 100=total damage to plant, 0=no damage to plant; for pest or weed control at 250 g/ha: Avena fatua, 312 h. The procedure:
as §1

Test [5] deals with Lolium perenne (LOLPE). In words: Example B post-emergence herbicidal test, LOLPE. To be noted: rate 250 g/ha, evaluated after 13 days; for pest or weed control at 250 g/ha: Lolium perenne, 312 h, scale 0-100, read-out: Post-emergence activity LOLPE (100=total damage to plant; 0=no damage to plant). The method, then:
as §1, with “Post-Emergence” for “Pre-Emergence”

Test [6] concerns Alopecurus myosuroides (ALOMY). Kind of test: Example B post-emergence herbicidal test, ALOMY. The settings on record: rate 250 g/ha, evaluated after 13 days; for pest or weed control at 250 g/ha: Alopecurus myosuroides, 312 h, scale 0-100, read-out: Post-emergence activity ALOMY (100=total damage to plant; 0=no damage to plant). The method, then:
as §1, with “Post-Emergence” for “Pre-Emergence”

For test [7], the system named is Echinochloa crus-galli (ECHCG). Kind of test: Example B post-emergence herbicidal test, ECHCG. The settings on record: rate 250 g/ha, evaluated after 13 days; for pest or weed control at 250 g/ha: Echinochloa crus-galli, 312 h, scale 0-100, read-out: Post-emergence activity ECHCG (100=total damage to plant; 0=no damage to plant). The procedure:
as §1, with “Post-Emergence” for “Pre-Emergence”

Test [8] relates to Avena fatua (AVEFA). Kind of test: Example B post-emergence herbicidal test, AVEFA. The settings on record: rate 250 g/ha, evaluated after 13 days; for pest or weed control at 250 g/ha: Avena fatua, 312 h, scale 0-100, read-out: Post-emergence activity AVEFA (100=total damage to plant; 0=no damage to plant). The method, then: as §1, with “Post-Emergence” for “Pre-Emergence”

SMILES strings stand for the structures.

In the case of `Cc1cc(C)c(C2=C(OC(=O)OC(C)(C)C)C/C(=C\C3CCN(C(=O)OC(C)(C)C)CC3)C2=O)c(C)c1` [Compound P53], the pest or weed control at 250 g/ha is 100% in test [1]; 60% in test [2]; 90% in test [3]; 70% in test [4]; 20% in test [5]; 60% in test [6]. Moreover, the pest or weed control at 250 g/ha in test [7] was 70%; in test [8], 40%.
With `Cc1cc(C)c(C2=C(OC(=O)OC(C)(C)C)CC(CC3CCN(C(=O)OC(C)(C)C)CC3)C2=O)c(C)c1` (stereo not shown) [Compound P54], the pest or weed control at 250 g/ha in test [1] was 100%; in test [2] it was 80%; in test [3], 100%; in test [4] it was 70%; in test [5], 40%; in test [6] it was 70%. Besides, the results for the pest or weed control at 250 g/ha in test [7] and in test [8] were 80% and 50%, respectively.
As for `CON1CCC(CC2CC(OC(=O)c3ccccc3)=C(c3c(C)cc(C)cc3C)C2=O)CC1` (stereo not shown) [Compound P55], the pest or weed control at 250 g/ha in test [1] was found to be 100%; in test [2], 100%; in test [3], 100%; in test [4], 90%; in test [5] it was 100%; in test [6], 90%. Further, the pest or weed control at 250 g/ha in test [7] and in test [8] was 100% each time.
Take `Cc1cc(C)c(C2=C(OC(=O)C3CC3)CC(CC3CCN(C(=O)C4CC4)C3)C2=O)c(C)c1` (stereo not shown) [Compound P57]: the pest or weed control at 250 g/ha was determined as 60% in test [1]; 50% in test [2]; 30% in test [3]; 70% in test [4]; 60% in test [5]; 80% in test [6]. Also, the results for the pest or weed control at 250 g/ha in test [7] and in test [8] were 70% and 80%, respectively.
Turning to `Cc1cc(C)c(C2=C(OC(=O)C(C)C)CC(CC3CCN(C(=O)C(C)C)C3)C2=O)c(C)c1` (stereo not shown) [Compound P58], the pest or weed control at 250 g/ha in test [1] was determined as 80%; in test [2], 70%; in test [3], 80%; in test [4], 70%; in test [5], 90%; in test [6] it was 90%. In addition, the pest or weed control at 250 g/ha in test [7] stood at 70%; in test [8], 90%.
For `Cc1cc(C)c(C2=C(OC(=O)C(C)(C)C)CC(CC3CCN(C(=O)C(C)(C)C)C3)C2=O)c(C)c1` (stereo not shown) [Compound P59], the pest or weed control at 250 g/ha in test [1] was determined as 80%; in test [2], 50%; in test [3], 70%; in test [4], 30%; in test [5], 80%; in test [6] it was 90%. In addition, the values for the pest or weed control at 250 g/ha in test [7] and in test [8] were 70% and 80%, respectively.
`Cc1cc(C)c(C2=C(OC(=O)C(C)(C)CCl)CC(CC3CCN(C(=O)C(C)(C)CCl)C3)C2=O)c(C)c1` (stereo not shown) [Compound P60]: the pest or weed control at 250 g/ha in test [1] came out at 80%; in test [2], 30%; in test [3], 50%; in test [4], 0%; in test [5] it was 70%; in test [6], 80%. Also, the pest or weed control at 250 g/ha was 40% in test [7] and 80% in test [8].
For `Cc1cc(C)c(C2=C(OC(=O)c3cccs3)CC(CC3CCN(C(=O)c4cccs4)C3)C2=O)c(C)c1` (stereo not shown) [Compound P61], the pest or weed control at 250 g/ha was determined as 90% in test [1]; 50% in test [2]; 80% in test [3]; 30% in test [4]; 90% in test [5]; 90% in test [6]. Besides, the pest or weed control at 250 g/ha in test [7] and in test [8] was 90% each time.
For `Cc1cc(C)c(C2=C(OC(=O)c3c(C)noc3C)CC(CC3CCN(C(=O)c4c(C)noc4C)C3)C2=O)c(C)c1` (stereo not shown) [Compound P63], the pest or weed control at 250 g/ha in test [1] is 70%; in test [2] it was 50%; in test [3], 70%; in test [4], 40%; in test [5] it was 80%; in test [6], 90%. Besides, the pest or weed control at 250 g/ha came to 70% in test [7] and 90% in test [8].
For `Cc1cc(C)c(C2=C(OC(=O)c3ccc(Cl)nc3)CC(CC3CCN(C(=O)c4ccc(Cl)nc4)C3)C2=O)c(C)c1` (stereo not shown) [Compound P64], the pest or weed control at 250 g/ha in test [1] was found to be 80%; in test [2] it was 70%; in test [3] it was 80%; in test [4] it was 70%; in test [5], 90%; in test [6] it was 100%. The results for the pest or weed control at 250 g/ha in test [7] and in test [8] were 90% and 100%, respectively.
Turning to `CCC(=O)OC1=C(c2c(C)cc(C)cc2C)C(=O)C(CC2CCN(C(=O)CC)CC2)C1` (stereo not shown) [Compound P65], the pest or weed control at 250 g/ha in test [1] was found to be 90%; in test [2] it was 60%; in test [3], 80%; in test [4], 60%; in test [5], 90%; in test [6], 90%. Further, the pest or weed control at 250 g/ha in test [7] and in test [8] was 90% throughout.
As to `Cc1cc(C)c(C2=C(O)CC(CC3CCOCC3)C2=O)c(C)c1` (stereo not shown) [Compound P67], the pest or weed control at 250 g/ha was found to be 100% in test [1]; 80% in test [2]; 90% in test [3]; 90% in test [4]; 100% in test [5]; 100% in test [6]. In addition, the pest or weed control at 250 g/ha in test [7] and in test [8] was 100% in each case.
As to `Cc1cc(C)c(C2=C(O)CC(CC3CCOCC3)C2=O)c(C)c1` (stereo not shown) [Compound P68], the “Pre-emergence activity LOLPE (damage to plant)” value in test [1] is reported as 100. Further, in test [2], the “Pre-emergence activity ALOMY (damage to plant)” value was 90. Moreover, the “Pre-emergence activity ECHCG (damage to plant)” value in test [3] is recorded as 100. The “Pre-emergence activity AVEFA (damage to plant)” value in test [4] amounted to 90. In test [5] (scale 0-100), the “Post-Emergence Activity LOLPE (100=total damage to plant; 0=no damage to plant)” value is given as 100. In test [6] (scale 0-100), the “Post-Emergence Activity ALOMY (100=total damage to plant; 0=no damage to plant)” value is 90. For the same compound, in test [7] (scale 0-100), the “Post-Emergence Activity ECHCG (100=total damage to plant; 0=no damage to plant)” value came out at 100. Besides, the “Post-Emergence Activity AVEFA (100=total damage to plant; 0=no damage to plant)” value in test [8] (scale 0-100) was determined as 90.
On to `COc1ccc(C(=O)OC2=C(c3c(C)cc(C)cc3C)C(=O)CC2CC2CCOC2)cc1` (stereo not shown) [Compound P71], for which the pest or weed control at 250 g/ha turned out to be 100% in test [1]; 90% in test [2]; 100% in test [3]; 100% in test [4]; 100% in test [5]; 100% in test [6]. Further, the pest or weed control at 250 g/ha in test [7] was 100%; in test [8] it was 90%.

The values are drawn from patent US9096560B2, “5-heterocyclylalkyl-3-hydroxy-2-phenylcyclopent-2-enones as herbicides” (Syngenta Limited, priority 2008, dated 2015).
